Test results taken from publication PMC5788402, “Impact of Target Warhead and Linkage Vector on Inducing Protein Degradation: Comparison of Bromodomain and Extra-Terminal (BET) Degraders Derived from Triazolodiazepine (JQ1) and Tetrahydroquinoline (I-BET726) BET Inhibitor Scaffolds” (Journal of Medicinal Chemistry, 2017).

Key:
[1] = target: Brd4 tandem bromodomain; details: cited from earlier work
[2] = target: T1, Brd4 (Homo sapiens, UniProt O60885); assay: Brd4 depletion in HL60 (immunoblot); assay type: cell-based; details: 50 nM, 4 h, HL60
T1 construct: endogenous in cells; host or cells: MV4;11; HL60

[3] = target: VCB / Brd4^BD2 ternary complex (Homo sapiens, UniProt O60885+P40337); assay: ITC ternary titration, VCB into Brd4^BD2–PROTAC complex; assay type: binding; details: for α: cooperativity, ratio between binary and ternary Kd; for α / ΔpKd ± uncertainty: Brd4^BD2; for cooperativity (α) Brd4–BD2: ternary complex formation with VCB and Brd4^BD2, as tabulated in Table 2; for ΔpKd ± uncertainty: ternary vs binary; for stoichiometry N / ΔG / ΔH / –TΔS: ternary, VCB in syringe, Brd4^BD2–PROTAC in cell
[4] = target: Brd4^BD2 (Homo sapiens, UniProt O60885); assay: ITC binary titration, Brd4^BD2 into PROTAC; assay type: binding; details: Brd4^BD2 in syringe, PROTAC in cell
[5] = target: VHL-EloC-EloB protein (VCB) (Homo sapiens, UniProt P40337); assay: ITC binary titration, VCB into PROTAC; assay type: binding; details: VCB in syringe, PROTAC in cell
[6] = system: MV4;11 cells; assay: Cell viability assay (CellTiter-Glo), MV4;11; assay type: cell-based; details: Homo sapiens, antiproliferative, 48 h treatment, error = quality of curve fitting, read-out: pEC50 MV4;11 (converted)
[7] = target: T1, Brd4; assay: Brd4 depletion in MV4;11 (immunoblot); assay type: cell-based; details: 50 nM, 4 h
[8] = system: cMyc; assay: cMyc depletion in MV4;11 (immunoblot); assay type: cell-based; details: 50 nM, 4 h

Structure (SMILES)	Kd [1]	Brd4 depletion (%) HL60 [2]	α [3]	cooperativity (α) Brd4–BD2 [3]	ΔpKd ± uncertainty [3]	stoichiometry N [3]	ΔG [3]	ΔH [3]	–TΔS [3]	stoichiometry N [4]	ΔG [4]	ΔH [4]	–TΔS [4]	stoichiometry N [5]	ΔG [5]	ΔH [5]	–TΔS [5]	EC50 [6]	Brd4 depletion (%) MV4;11 [7]	cMyc depletion (%) MV4;11 [8]
CC(=O)N1c2ccc(-c3ccc(C(=O)O)cc3)cc2[C@H](Nc2ccc(Cl)cc2)C[C@@H]1C [compound 4]	4 nM	–157%																		
Cc1ncsc1-c1ccc(CNC(=O)[C@@H]2C[C@@H](O)CN2C(=O)[C@@H](NC(=O)COCCOCCOCCOCCNC(=O)C[C@@H]2N=C(c3ccc(Cl)cc3)c3c(sc(C)c3C)-n3c(C)nnc32)C(C)(C)C)cc1 [compound 7]			4.7	4.7	0.66 ± 0.10	0.76 ± 0.07	–10.7 ± 0.05 kcal·mol^–1	–10.6 ± 1.3 kcal·mol^–1	–0.07 ± 1.3 kcal·mol^–1	0.79 ± 0.03	–10.3 ± 0.04 kcal·mol^–1	–10.6 ± 0.5 kcal·mol^–1	0.31 ± 0.53 kcal·mol^–1	0.76 ± 0.03	–9.75 ± 0.13 kcal·mol^–1	–8.79 ± 0.42 kcal·mol^–1	–0.96 ± 0.29 kcal·mol^–1	123 nM		
CC(=O)N1c2ccc(-c3ccc(C(=O)NCCOCCOCC(=O)N[C@H](C(=O)N4C[C@H](O)C[C@H]4C(=O)NCc4ccc(-c5scnc5C)cc4)C(C)(C)C)cc3)cc2[C@H](Nc2ccc(Cl)cc2)C[C@@H]1C [compound 8, (2S,4R)-1-((S)-1-(4-((2S,4R)-1-Acetyl-4-((4-chlorophenyl)amino)-2-methyl-1,2,3,4-tetrahydroquinolin-6-yl)phenyl)-12-(tert-butyl)-1,10-dioxo-5,8-dioxa-2,11-diazatridecan-13-oyl)-4-hydroxy-N-(4-(4-methylthiazol-5-yl)benzyl)pyrrolidine-2-carboxamide]		–156%	0.2	0.15	–0.83 ± 0.10	1.07 ± 0.01	–8.33 ± 0.05 kcal·mol^–1	–7.02 ± 0.11 kcal·mol^–1	–1.31 ± 0.12 kcal·mol^–1	0.804 ± 0.003	–11.7 ± 0.4 kcal·mol^–1	–10.0 ± 0.1 kcal·mol^–1	–1.71 ± 0.43 kcal·mol^–1	1.12 ± 0.01	–9.46 ± 0.13 kcal·mol^–1	–4.07 ± 0.07 kcal·mol^–1	–5.39 ± 0.14 kcal·mol^–1		11/11%	11/11%
